Key:
[1] = tested on: HeLa cells (cervical cancer); assay: MTT antiproliferative assay, HeLa; type: cell-based, human; conditions: Homo sapiens, 72 h, read-out: Growth inhibition (%) ± SEM
Experimental: (§1) The in vitro antiproliferative activities of the synthesized aminodiols 4–38 against a panel of different human cancer cell lines of gynecological origin, including cervical (SiHA and HeLa), breast (MCF7 and MDA-MB-231), and ovary (A2780) cancers were assayed by the MTT method. […] Cisplatin, a clinically applied anticancer agent, was used as a reference compound and the results are summarized in Figure 3 and Table S1 in Supporting Information. […] On the other hand, none of the prepared azole derivatives exerted relevant activity.
(§2) The growth-inhibitory effects of the gibberellic acid-based aminodiol derivatives were determined by a standard MTT (3-(4,5-dimethylthiazol-2-yl)-2,5-diphenyltetrazolium bromide) assay on a panel containing five cell lines, including Hela and Siha (cervical cancers); MDA-MB-231 and MCF-7 (breast cancers); and A2780 ovarian cancer cells. The most promising agents were additionally tested against NIH/3T3 mouse embryo fibroblast cells. All cell lines were purchased from the European Collection of Cell Cultures (Salisbury, UK) except SiHa, which was obtained from the American Tissue Culture Collection (Manassas, VA, USA). The cells were maintained in minimal essential medium supplemented with 10% fetal bovine serum, 1% non-essential amino acids, and 1% penicillin-streptomycin at 37 °C in a humidified atmosphere containing 5% CO2. All media and supplements were obtained from Lonza Group Ltd., (Basel, Switzerland). Cancer cells were seeded into 96-well plates (5000 cells/well), after an overnight incubation the test compound was added in 2 different concentrations (10 µM and 30 µM) and incubated for another 72 h under cell-culturing conditions. Then, 20 μL of 5 mg/mL MTT solution was added to each well and incubated for a further 4 h. The medium was removed, and the precipitated formazan crystals were dissolved in DMSO during 60 min of shaking at 37 °C. As the final step, the absorbance was measured at 545 nm by using a microplate reader (SPECTROStar Nano, BMG Labtech, Offenburg, Germany). Untreated cells were included as controls. […] These agents were additionally tested against NIH/3T3 fibroblasts to obtain results about their cancer selectivity. Two independent experiments were performed with five wells for each condition. Cisplatin (Ebewe GmbH, Unterach, Austria), a clinically used anticancer agent, was used as a positive control. Calculations were performed utilizing the GraphPad Prism 5.01 software (GraphPad Software Inc., San Diego, CA, USA).

[2] = tested on: SiHa cells (cervical cancer); assay: MTT antiproliferative assay, SiHa; type: cell-based, human; conditions: Homo sapiens, 72 h, read-out: Growth inhibition (%) ± SEM
Experimental: as §1, §2

[3] = tested on: MDA-MB-231 cells (breast cancer); assay: MTT antiproliferative assay, MDA-MB-231; type: cell-based, human; conditions: Homo sapiens, 72 h, read-out: Growth inhibition (%) ± SEM; for inhibition at 10 µM: MDA-MB-231, 10 μM; for inhibition at 30 µM: MDA-MB-231, 30 μM
Experimental: as §1, §2

[4] = tested on: A2780 ovarian cancer cells; assay: MTT antiproliferative assay, A2780; type: cell-based, human; conditions: Homo sapiens, 72 h, read-out: Growth inhibition (%) ± SEM; for inhibition at 10 µM: A2780, 10 μM; for inhibition at 30 µM: A2780, 30 μM
Experimental: as §1, §2

| Compound | melting point [°C] | inhibition at 10 µM [1] [%] | inhibition at 30 µM [1] [%] | inhibition at 10 µM [2] [%] | inhibition at 30 µM [2] [%] | inhibition at 10 µM [3] [%] | inhibition at 30 µM [3] [%] | inhibition at 10 µM [4] [%] | inhibition at 30 µM [4] [%] |
| --- | --- | --- | --- | --- | --- | --- | --- | --- | --- |
| CCOC(=O)[C@H]1c2c(C)cccc2[C@H]2CC[C@]3(O)C[C@@]21C[C@]3(O)CNCc1ccccc1 [Compound 4, Ethyl (4bS,7S,8S,9aR,10R)-8-((benzylamino)methyl)-7,8-dihydroxy-1-methyl-4b,6,7,8,9,10-hexahydro-5H-7,9a-methanobenzo[a]azulene-10-carboxylate] | 97 to 99 | 26.9 ± 1.55 | 25.9 ± 3.2 | 23.3 ± 0.63 | 57 ± 1.16 | < 20 | 31.6 ± 1.49 | < 20 | 49.9 ± 1.76 |
| CCOC(=O)[C@H]1c2c(C)cccc2[C@H]2CC[C@]3(O)C[C@@]21C[C@]3(O)CN[C@H](C)c1ccccc1 [Compound 6, Ethyl (4bS,7S,8S,9aR,10R)-7,8-dihydroxy-1-methyl-8-((((R)-1-phenylethyl)amino)methyl)-4b,6,7,8,9,10-hexahydro-5H-7,9a-methanobenzo[a]azulene-10-carboxylate] | 104 to 105 | 21.4 ± 1.7 | 63.1 ± 1.81 | < 20 | 65.9 ± 2.48 | < 20 | 85.1 ± 1.38 | 25.3 ± 0.27 | 61.9 ± 1.25 |
| CCOC(=O)[C@H]1c2c(C)cccc2[C@H]2CC[C@]3(O)C[C@@]21C[C@]3(O)CN[C@H](CC)c1ccccc1 [Compound 7, Ethyl (4bS,7S,8S,9aR,10R)-7,8-dihydroxy-1-methyl-8-((((R)-1-phenylpropyl)amino)methyl)-4b,6,7,8,9,10-hexahydro-5H-7,9a-methanobenzo[a]azulene-10-carboxylate] | 55 to 57 | < 20 | 45 ± 0.97 | 28.9 ± 1.16 | 94.3 ± 1.48 | < 20 | 70.38 ± 0.07 | < 20 | 65 ± 2.44 |
| CCOC(=O)[C@H]1c2c(C)cccc2[C@H]2CC[C@]3(O)C[C@@]21C[C@]3(O)CN[C@@H](CC)c1ccccc1 [Compound 8, Ethyl (4bS,7S,8S,9aR,10R)-7,8-dihydroxy-1-methyl-8-((((S)-1-phenylpropyl)amino)methyl)-4b,6,7,8,9,10-hexahydro-5H-7,9a-methanobenzo[a]azulene-10-carboxylate] | 114 to 115 | 27.5 ± 0.41 | 98.05 ± 0.07 | 29.7 ± 1.54 | 98.38 ± 0.44 | < 20 | 97.52 ± 0.67 | 39.5 ± 1.27 | 96.38 ± 0.13 |
| CCOC(=O)[C@H]1c2c(C)cccc2[C@H]2CC[C@]3(O)C[C@@]21C[C@]3(O)CNCc1ccc(F)cc1 [Compound 9, Ethyl (4bS,7S,8S,9aR,10R)-8-(((4-fluorobenzyl)amino)methyl)-7,8-dihydroxy-1-methyl-4b,6,7,8,9,10-hexahydro-5H-7,9a-methanobenzo[a]azulene-10-carboxylate] | 253 to 254 | < 20 | 30.6 ± 4.19 | 26.6 ± 1.02 | 53.6 ± 1.92 | < 20 | < 20 | < 20 | 45.8 ± 1.62 |

Further lines, with some results ahead:

| melting point [°C] | Compound | inhibition at 10 µM [1] [%] | inhibition at 30 µM [1] [%] | inhibition at 10 µM [2] [%] | inhibition at 30 µM [2] [%] | inhibition at 10 µM [3] [%] | inhibition at 30 µM [3] [%] | inhibition at 10 µM [4] [%] | inhibition at 30 µM [4] [%] |
| --- | --- | --- | --- | --- | --- | --- | --- | --- | --- |
| 84 to 86 | CCOC(=O)[C@H]1c2c(C)cccc2[C@H]2CC[C@]3(O)C[C@@]21C[C@]3(O)CN[C@@H](C)c1ccc(F)cc1 [Compound 10, Ethyl (4bS,7S,8S,9aR,10R)-8-((((S)-1-(4-fluorophenyl)ethyl)amino)methyl)-7,8-dihydroxy-1-methyl-4b,6,7,8,9,10-hexahydro-5H-7,9a-methanobenzo[a]azulene-10-carboxylate] | 38.5 ± 2.02 | 97.93 ± 0.11 | 39.1 ± 1.82 | 97.08 ± 0.08 | 31.2 ± 0.77 | 94.5 ± 1.05 | 22.2 ± 1.93 | 96.46 ± 0.76 |
| 224 to 225 | CCOC(=O)[C@H]1c2c(C)cccc2[C@H]2CC[C@]3(O)C[C@@]21C[C@]3(O)CNCc1ccc(OC)cc1 [Compound 11, Ethyl (4bS,7S,8S,9aR,10R)-7,8-dihydroxy-8-(((4-methoxybenzyl)amino)methyl)-1-methyl-4b,6,7,8,9,10-hexahydro-5H-7,9a-methanobenzo[a]azulene-10-carboxylate] | < 20 | 60.8 ± 2.44 | 30.7 ± 0.82 | 53.7 ± 0.76 | < 20 | 78.7 ± 1.47 | 31.7 ± 2.82 | 53.4 ± 1.68 |
| 71 to 74 | CCOC(=O)[C@H]1c2c(C)cccc2[C@H]2CC[C@]3(O)C[C@@]21C[C@]3(O)CNCc1cccc2ccccc12 [Compound 15, Ethyl (4bS,7S,8S,9aR,10R)-7,8-dihydroxy-1-methyl-8-(((naphthalen-1-ylmethyl)amino)methyl)-4b,6,7,8,9,10-hexahydro-5H-7,9a-methanobenzo[a]azulene-10-carboxylate] | 28.2 ± 0.88 | 96.7 ± 1.54 | 28.61 ± 0.15 | 97.95 ± 0.63 | < 20 | 95.96 ± 0.69 | 21.9 ± 1.5 | 95.48 ± 0.65 |
| 101.4 to 103 | CCOC(=O)[C@H]1c2c(C)cccc2[C@H]2CC[C@]3(O)C[C@@]21C[C@]3(O)CN(Cc1ccccc1)Cc1ccccc1 [Compound 17, Ethyl (4bS,7S,8S,9aR,10R)-8-((dibenzylamino)methyl)-7,8-dihydroxy-1-methyl-4b,6,7,8,9,10-hexahydro-5H-7,9a-methanobenzo[a]azulene-10-carboxylate] | 40.8 ± 1.19 | 45.6 ± 1.48 | < 20 | 47.1 ± 1.74 | < 20 | 36.9 ± 1.58 | < 20 | 78.9 ± 1.12 |
| 125 to 126 | CCOC(=O)[C@H]1c2c(C)cccc2[C@H]2CC[C@]3(O)C[C@@]21CC31CN(Cc2ccccc2)CO1 (stereo partly shown) [Compound 24, Ethyl (4b’S,7’S,9a’R,10’R)-3-benzyl-7’-hydroxy-1’-methyl-4b’,6’,7’,10’-tetrahydro-5’H,9’H-spiro[oxazolidine-5,8’-[7,9a]methanobenzo[a]azulene]-10’-carboxylate] | < 20 | 53.9 ± 2.21 | < 20 | 31.9 ± 1.28 | < 20 | 42.4 ± 1.46 | < 20 | 34.1 ± 1.77 |
| 101 to 103 | CCOC(=O)[C@H]1c2c(C)cccc2[C@H]2CC[C@]3(O)C[C@@]21C[C@]3(O)Cn1ccnc1 [Compound 26, Ethyl (4bS,7S,8S,9aR,10R)-8-((1H-imidazol-1-yl)methyl)-7,8-dihydroxy-1-methyl-4b,6,7,8,9,10-hexahydro-5H-7,9a-methanobenzo[a]azulene-10-carboxylate] | < 20 | < 20 | < 20 | 25.9 ± 2.53 | < 20 | < 20 | < 20 | < 20 |
| 90 to 92 | CCOC(=O)[C@H]1c2c(C)cccc2[C@H]2CC[C@]3(O)C[C@@]21C[C@]3(O)Cn1ccnn1 [Compound 29, Ethyl (4bS,7S,8S,9aR,10R)-8-((1H-1,2,3-triazol-1-yl)methyl)-7,8-dihydroxy-1-methyl-4b,6,7,8,9,10-hexahydro-5H-7,9a-methanobenzo[a]azulene-10-carboxylate] | – | – | – | – | – | – | – | – |

Source: PMC9499365, “Stereoselective Synthesis and Application of Gibberellic Acid-Derived Aminodiols” (International Journal of Molecular Sciences, 2022)
